Test results from US20080199439A1, “IAP-binding cargo molecules and peptidomimetics for use in diagnostic and therapeutic methods” (priority 2003, published 2008).

What was measured:
[1] = test system: HeLa cells; parameters: dose or concentration left out as unconfirmed; conditions: 48 minutes, confocal microscopy
[2] = test system: HeLa cells; conditions: compared with Smac N-terminal tetrapeptide AVPI
From the text: This example illustrates the use of an labeled IAP-binding cargo molecule to bind with IAP within cells and tissues and inducing apoptosis.

[3] = target: recombinant XIAP-BIR3 (Homo sapiens, UniProt P98170); conditions: 550 nm peak of free AVPC-badan; binding to recombinant XIAP-BIR3
From the text: Without wishing to be bound by theory, upon binding to an IAP protein, the labeled IAP-binding cargo molecule packs into the groove of the BIR3 (SEQ ID NO: 15) causing a detectable shift in emission maximum and intensity when the environment of the fluorophore changes from water to the hydrophobic pocket of the protein.

[4] = test system: A498 cells; test: Competition of AVPC-badan emission by AVPF in A498 cells; format: cell-based; conditions: AVPC-badan 8 mM, 100 equivalents AVPF, 36 minutes, emission 385-470 nm and >505 nm
Method: (§1) The emission between 435-485 nm after exposure of cells for 30 minutes is shown in each case. […] The emission between 385-470 nm and >505 nm after exposure of cells for 36 minutes is shown in each case;
(§2) Thus, the primary action of the IAP binding cargo molecule appears to be by binding to IAP proteins, thus releasing any activated caspases and thereby promoting apoptosis.

[5] = test system: HeLa cells; test: Competition of AVPC-badan emission by AVPF in HeLa cells; format: cell-based; conditions: AVPC-badan 0.1 mM, 100 equivalents AVPF, 30 minutes, emission 435-485 nm
Method: as §1, §2

Sequence of recombinant XIAP-BIR3 (P98170 265-330 limits assumed): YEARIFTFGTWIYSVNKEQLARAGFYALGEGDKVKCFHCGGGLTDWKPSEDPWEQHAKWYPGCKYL

| Compound | intracellular localization of the peptide [1] | induction of apoptosis (kinetics) [2] | change of emission peak and intensity on binding [3] | effect of competitor on intensity of AVPC-badan emission [4] | effect of competitor on intensity of AVPC-badan emission [5] |
| --- | --- | --- | --- | --- | --- |
| CC(N)C(=O)NC(C(=O)N1CCCC1C(=O)NC(CSCC(=O)c1ccc2cc(N(C)C)ccc2c1)C(=O)O)C(C)C (centres unmarked) [AVPC-badan] | diffuse cytosolic distribution | induced apoptosis with kinetics similar to those of the Smac N-terminal tetrapeptide AVPI | shifts to 542 nm and increases in intensity | – | – |
| AVPF: competitor peptide AVPF (SEQ ID NO: 19) | – | – | – | intensity of emission was found to diminish | intensity of emission was found to diminish |
